Assay results from ChEMBL document CHEMBL4828748, “Design, synthesis, and pharmacological evaluation of sinomenine derivatives on rings A and C: Novel compounds screening for aplastic anemia targeting on cytotoxic T lymphocyte” (Eur J Med Chem, 2021).
Activity calls are given as the source filed them. The rule behind the calls is not given here.

Experiments:
Mus musculus [1] = test: Anti-aplastic anaemia in immune-mediated bone marrow failure BALB/c mouse model assessed as increase in eosinophils count at 2.5 to 10 mg/kg, po administered for 14 days and measured on day 14 by automated micro-analyzer; assay type: functional, organism-based; conditions: dose 2.5-10 mg/kg, time 14.0 day
Mus musculus [2] = test: Anti-aplastic anaemia in immune-mediated bone marrow failure BALB/c mouse model assessed as reduction in histopathological changes in femur at 2.5 to 10 mg/kg, po administered for 14 days and measured on day 14 by Hematoxylin-Eosin staining based analysis; assay type: functional, organism-based; conditions: dose 2.5-10 mg/kg, time 14.0 day
Mus musculus [3] = test: Anti-aplastic anaemia in immune-mediated bone marrow failure BALB/c mouse model assessed as increase in thymus index at 2.5 to 10 mg/kg, po administered for 14 days; assay type: functional, organism-based; conditions: dose 2.5-10 mg/kg, time 14.0 day
Mus musculus [4] = test: Anti-aplastic anaemia in immune-mediated bone marrow failure BALB/c mouse model assessed as increase in immature reticulocytes administered orally for 14 days and measured on day 14 by automated micro-analyzer; assay type: functional, organism-based; conditions: dose 2.5-10 mg/kg, time 14.0 day
[5] = Inhibition of CD3/CD28 antibody-stimulated C57BL/6 mouse primary CD8-positive T lymphocytes activation assessed as proportion of CD69-positive cells at 3 uM incubated for 48 hrs by flow cytometry (reference value: 93.42%); assay type: functional, CD8-positive T cell; set-up: scale not given: the % may be the effect or the level left
CD8-positive T cell [6] = test: Inhibition of CD3/CD28 antibody-stimulated C57BL/6 mouse primary CD8-positive T lymphocytes proliferation assessed as reduction in cell viability incubated for 48 hrs by CCK8 assay; assay type: functional, tissue-based; conditions: dose 1-10 µM
Mus musculus [7] = test: Anti-aplastic anaemia in immune-mediated bone marrow failure BALB/c mouse model assessed as increase in platelet count at 2.5 to 10 mg/kg, po administered for 14 days and measured on day 14 by automated micro-analyzer; assay type: functional, organism-based; conditions: dose 2.5-10 mg/kg, time 14.0 day
Mus musculus [8] = test: Anti-aplastic anaemia in immune-mediated bone marrow failure BALB/c mouse model assessed as increase in spleen index at 2.5 to 10 mg/kg, po administered for 14 days; assay type: functional, organism-based; conditions: dose 2.5-10 mg/kg, time 14.0 day
Mus musculus [9] = test: Anti-aplastic anaemia in immune-mediated bone marrow failure BALB/c mouse model assessed as prevention of food intake decrease at 2.5 to 10 mg/kg, po administered for 14 days; assay type: functional, organism-based; conditions: dose 2.5-10 mg/kg, time 14.0 day
Mus musculus [10] = test: Anti-aplastic anaemia in immune-mediated bone marrow failure BALB/c mouse model assessed as slowing down the weight loss at 2.5 to 10 mg/kg, po administered for 14 days; assay type: functional, organism-based; conditions: dose 2.5-10 mg/kg, time 14.0 day
[11] = Inhibition of CD3/CD28 antibody-stimulated C57BL/6 mouse primary CD8-positive T lymphocytes activation assessed as proportion of CD69-positive cells at 5 uM incubated for 48 hrs by flow cytometry (reference value: 93.42%); assay type: functional, CD8-positive T cell; set-up: scale not given: the % may be the effect or the level left
[12] = Cytotoxicity against C57BL/6J mouse peritoneal macrophages assessed as reduction of cell viability at 10 uM incubated for 24 hrs in presence of LPS by MTT assay; assay type: cell-based, Peritoneal macrophage
CD8-positive T cell [13] = test: Inhibition of CD3/CD28 antibody-stimulated C57BL/6 mouse primary CD8-positive T lymphocytes proliferation at 1 to 5 uM incubated for 48 hrs by CFSE staining based flow cytometry; assay type: functional, tissue-based; conditions: dose 1-5 µM
[14] = Inhibition of mouse CTLL-2 cells activity at 10 uM incubated for 24 hrs; assay type: functional
[15] = Inhibition of CD3/CD28 antibody-stimulated C57BL/6 mouse primary CD8-positive T lymphocytes activation assessed as proportion of CD69-positive cells at 1 uM incubated for 48 hrs by flow cytometry (reference value: 93.42%); assay type: functional, CD8-positive T cell; set-up: scale not given: the % may be the effect or the level left
[16] = Inhibition of IFN-gamma release in mouse CTLL-2 cells measured after 24 hrs by ELISA; assay type: functional, cell-based; conditions: CTLL-2, 24 h
CD8-positive T cell [17] = test: Inhibition of aerobic glycolysis in CD3/CD28 antibody-stimulated C57BL/6 mouse primary CD8-positive T lymphocytes assessed as reduction in lactate production at 1 to 5 uM incubated for 48 hrs; assay type: functional, tissue-based; conditions: dose 1-5 µM
Mus musculus [18] = test: Anti-aplastic anaemia in immune-mediated bone marrow failure BALB/c mouse model assessed as increase in WBC count at 2.5 to 10 mg/kg, po administered for 14 days and measured on day 14 by automated micro-analyzer; assay type: functional, organism-based; conditions: dose 2.5-10 mg/kg, time 14.0 day
Mus musculus [19] = test: Anti-aplastic anaemia in immune-mediated bone marrow failure BALB/c mouse model assessed as increase in hematocrit content at 2.5 to 10 mg/kg, po administered for 14 days and measured on day 14 by automated micro-analyzer; assay type: functional, organism-based; conditions: dose 2.5-10 mg/kg, time 14.0 day
[20] = Inhibition of hematopoietic negative regulators release in CD3/CD28 antibody-stimulated C57BL/6 mouse primary CD8-positive T lymphocytes assessed as suppression of TNF-alpha release measured after 48 hrs by ELISA; assay type: functional, tissue-based; conditions: C57BL/6, CD8-positive T cell
hERG (KCNH2) = hERG (KCNH2) (Homo sapiens, UniProt Q12809); test: Inhibition of human ERG expressed in CHO cells measured after 24 hrs by patch clamp assay relative to control; assay type: cell-based; conditions: CHO cells expressing human ERG
[21] = Cytotoxicity against C57BL/6 mouse primary CD8-positive T lymphocytes assessed as effect on cell viability at 1 to 5 uM incubated for 48 hrs by CCK8 assay; assay type: tissue-based; conditions: dose 1-5 µM
Mus musculus [22] = test: Anti-aplastic anaemia in immune-mediated bone marrow failure BALB/c mouse model assessed as increase in plateletcrit at 2.5 to 10 mg/kg, po administered for 14 days and measured on day 14 by automated micro-analyzer; assay type: functional, organism-based; conditions: dose 2.5-10 mg/kg, time 14.0 day
Mus musculus [23] = test: Anti-aplastic anaemia in immune-mediated bone marrow failure BALB/c mouse model assessed as increase in hemoglobin content at 2.5 to 10 mg/kg, po administered for 14 days and measured on day 14 by automated micro-analyzer; assay type: functional, organism-based; conditions: dose 2.5-10 mg/kg, time 14.0 day
[24] = Inhibition of hematopoietic negative regulators release in CD3/CD28 antibody-stimulated C57BL/6 mouse primary CD8-positive T lymphocytes assessed as suppression of IFN-gamma release measured after 48 hrs by ELISA; assay type: functional, tissue-based; conditions: C57BL/6, CD8-positive T cell
[25] = target: Voltage-gated inwardly rectifying potassium channel KCNH2 (Homo sapiens, UniProt Q12809); test: Inhibition of human ERG expressed in CHO cells measured after 24 hrs by patch clamp assay; assay type: cell-based
Mus musculus [26] = test: Anti-aplastic anaemia in immune-mediated bone marrow failure BALB/c mouse model assessed as increase in nucleated cell counts in femur at 2.5 to 10 mg/kg, po administered for 14 days and measured on day 14 by Hematoxylin-Eosin staining based analysis; assay type: functional, organism-based; conditions: dose 2.5-10 mg/kg, time 14.0 day
CD8-positive T cell [27] = test: Inhibition of aerobic glycolysis in CD3/CD28 antibody-stimulated C57BL/6 mouse primary CD8-positive T lymphocytes assessed as reduction in glucose consumption at 1 to 5 uM incubated for 48 hrs; assay type: functional, tissue-based; conditions: dose 1-5 µM
[28] = Acute toxicity in po dosed Kunming mouse; assay type: organism-based; conditions: in vivo
Mus musculus [29] = test: Anti-aplastic anaemia in immune-mediated bone marrow failure BALB/c mouse model assessed as increase in ratio of nucleated cell to erythroid cell counts in femur at 2.5 to 10 mg/kg, po administered for 14 days and measured on day 14 by Hematoxylin-Eosin staining based analysis; assay type: functional, organism-based; conditions: dose 2.5-10 mg/kg, time 14.0 day
Mus musculus [30] = test: Anti-aplastic anaemia in immune-mediated bone marrow failure BALB/c mouse model assessed as increase in RBC count at 2.5 to 10 mg/kg, po administered for 14 days and measured on day 14 by automated micro-analyzer; assay type: functional, organism-based; conditions: dose 2.5-10 mg/kg, time 14.0 day
Peritoneal macrophage = test: Inhibition of LPS-induced NO production in C57BL/6J mouse peritoneal macrophages at 10 uM measured after 24 hrs in presence of LPS by Griess reagent based assay relative to control; assay type: functional
Mus musculus [31] = test: Anti-aplastic anaemia in immune-mediated bone marrow failure BALB/c mouse model assessed as increase in neutrophils count at 2.5 to 10 mg/kg, po administered for 14 days and measured on day 14 by automated micro-analyzer; assay type: functional, organism-based; conditions: dose 2.5-10 mg/kg, time 14.0 day
[32] = Inhibition of mouse CTLL-2 cells activity incubated for 24 hrs; assay type: functional, cell-based
[33] = Acute toxicity in Kunming mouse assessed as animal survival without abnormal state at 5 to 10 g/kg, po administered as single dose; assay type: organism-based; conditions: in vivo, dose 5-10 g/Kg

Sequence of hERG (KCNH2) (Q12809 whole entry): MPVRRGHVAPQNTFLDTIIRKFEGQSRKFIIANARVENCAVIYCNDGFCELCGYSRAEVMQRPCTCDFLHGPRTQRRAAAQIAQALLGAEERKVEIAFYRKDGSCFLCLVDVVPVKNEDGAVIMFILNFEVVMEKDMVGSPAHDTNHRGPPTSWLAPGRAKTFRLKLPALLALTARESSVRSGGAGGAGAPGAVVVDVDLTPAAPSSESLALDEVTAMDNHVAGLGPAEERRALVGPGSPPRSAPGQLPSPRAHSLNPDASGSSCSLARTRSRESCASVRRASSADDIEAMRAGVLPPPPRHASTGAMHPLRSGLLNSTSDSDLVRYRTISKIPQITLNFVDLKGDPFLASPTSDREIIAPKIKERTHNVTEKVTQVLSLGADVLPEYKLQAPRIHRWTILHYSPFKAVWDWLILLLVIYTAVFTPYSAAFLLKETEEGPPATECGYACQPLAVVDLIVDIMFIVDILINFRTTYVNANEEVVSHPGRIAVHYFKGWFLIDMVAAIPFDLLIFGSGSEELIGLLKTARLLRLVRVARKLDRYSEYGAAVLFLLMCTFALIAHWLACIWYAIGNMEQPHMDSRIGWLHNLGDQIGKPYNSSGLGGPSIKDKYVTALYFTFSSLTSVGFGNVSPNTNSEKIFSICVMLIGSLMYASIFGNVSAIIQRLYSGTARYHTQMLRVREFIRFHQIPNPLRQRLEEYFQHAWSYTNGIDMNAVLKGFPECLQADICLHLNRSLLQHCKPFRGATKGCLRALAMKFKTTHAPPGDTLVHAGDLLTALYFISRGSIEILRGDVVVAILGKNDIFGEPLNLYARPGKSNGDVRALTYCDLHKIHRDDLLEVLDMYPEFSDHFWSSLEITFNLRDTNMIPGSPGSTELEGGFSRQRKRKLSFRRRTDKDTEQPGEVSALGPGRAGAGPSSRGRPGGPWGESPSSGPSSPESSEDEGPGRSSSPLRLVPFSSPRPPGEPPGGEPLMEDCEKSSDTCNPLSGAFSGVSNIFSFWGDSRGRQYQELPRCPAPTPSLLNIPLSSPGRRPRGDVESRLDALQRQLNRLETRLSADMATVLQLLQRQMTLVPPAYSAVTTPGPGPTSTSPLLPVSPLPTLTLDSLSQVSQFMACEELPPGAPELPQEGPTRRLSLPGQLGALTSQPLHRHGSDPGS
Sequence of Voltage-gated inwardly rectifying potassium channel KCNH2 (Q12809 whole entry): as above

## COC1=C[C@@H]2[C@@H]3Cc4c(COC(=O)/C=C/c5ccccc5)cc(OC)c(OC(=O)/C=C/c5ccccc5)c4[C@]2(CCN3C)CC1=O
Mus musculus [1]
  Activity: Active
Mus musculus [2]
  Activity: Active
Mus musculus [3]
  Activity: Active
Mus musculus [4]
  Activity: Active
[5]
  Activity: 80.87%
CD8-positive T cell [6]
  inhibition: Dose-Dependent Effect
Mus musculus [7]
  Activity: Active
Mus musculus [8]
  Activity: Active
Mus musculus [9]
  Activity: Active
Mus musculus [10]
  Activity: Active
[11]
  Activity: 76.97%
[12]
  inhibition at 24 h, 10 µM: 6.4%
CD8-positive T cell [13]
  inhibition: Active
[14]
  inhibition at 10 µM: 98.1%
[15]
  Activity: 89.37%
[16]
  IC50: 4.5 µM
CD8-positive T cell [17]
  inhibition: Active
Mus musculus [18]
  Activity: Active
Mus musculus [19]
  Activity: Active
[20]
  IC50: 4.4 µM
hERG (KCNH2)
  inhibition at 24 h: 26.2%
[21]
  Activity: Non-Toxic
Mus musculus [22]
  Activity: Active
Mus musculus [23]
  Activity: Active
[24]
  IC50: 3.2 µM
[25]
  IC50: > 30 µM
Mus musculus [26]
  Activity: Active
CD8-positive T cell [27]
  inhibition: Active
[28]
  LD50: > 10000 mg/kg
Mus musculus [29]
  Activity: Active
Mus musculus [30]
  Activity: Active
Peritoneal macrophage
  inhibition at 10 µM: 97.1%
Mus musculus [31]
  Activity: Active
[32]
  IC50: 2.3 µM
[33]
  Survival: 14 days
